Earlier results, collected in patent publication US10251905B2, “Tissue maintenance” (Hibernation Therapeutics, A KF LLC, priority 2006, dated 2019).

Legend:
[1] = target: human NK(1) receptor (Homo sapiens, UniProt P25103)
[2] = target: T1, NK(2) receptor (Homo sapiens, UniProt P21452); conditions: relative to NK(1)
T1 sequence (P21452 1-398): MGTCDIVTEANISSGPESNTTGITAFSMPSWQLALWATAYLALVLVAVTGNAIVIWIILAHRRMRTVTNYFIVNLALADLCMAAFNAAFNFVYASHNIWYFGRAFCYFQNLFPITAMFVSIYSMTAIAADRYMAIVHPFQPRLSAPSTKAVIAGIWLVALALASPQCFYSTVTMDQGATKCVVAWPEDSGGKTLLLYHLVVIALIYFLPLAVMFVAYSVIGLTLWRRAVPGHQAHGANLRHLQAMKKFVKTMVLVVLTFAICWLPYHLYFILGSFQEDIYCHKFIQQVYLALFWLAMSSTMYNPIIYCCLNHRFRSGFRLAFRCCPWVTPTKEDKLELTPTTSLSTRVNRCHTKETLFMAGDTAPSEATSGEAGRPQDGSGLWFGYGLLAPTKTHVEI

[3] = target: T2, NK(3) receptor (Homo sapiens, UniProt P29371); conditions: relative to NK(1)
T2 sequence (P29371 1-465): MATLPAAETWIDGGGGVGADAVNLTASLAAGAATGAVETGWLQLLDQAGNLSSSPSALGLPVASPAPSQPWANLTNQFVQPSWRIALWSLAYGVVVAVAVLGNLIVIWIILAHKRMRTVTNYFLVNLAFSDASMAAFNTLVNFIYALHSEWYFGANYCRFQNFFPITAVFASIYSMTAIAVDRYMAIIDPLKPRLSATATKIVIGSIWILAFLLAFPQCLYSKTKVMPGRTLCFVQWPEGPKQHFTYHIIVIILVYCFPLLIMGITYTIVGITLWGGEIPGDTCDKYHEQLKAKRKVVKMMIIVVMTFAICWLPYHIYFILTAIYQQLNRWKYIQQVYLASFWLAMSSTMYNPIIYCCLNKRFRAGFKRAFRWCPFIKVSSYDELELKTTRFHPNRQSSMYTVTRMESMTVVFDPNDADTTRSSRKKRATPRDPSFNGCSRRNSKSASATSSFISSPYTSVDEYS

human NK(1) receptor, sequence (P25103 whole entry): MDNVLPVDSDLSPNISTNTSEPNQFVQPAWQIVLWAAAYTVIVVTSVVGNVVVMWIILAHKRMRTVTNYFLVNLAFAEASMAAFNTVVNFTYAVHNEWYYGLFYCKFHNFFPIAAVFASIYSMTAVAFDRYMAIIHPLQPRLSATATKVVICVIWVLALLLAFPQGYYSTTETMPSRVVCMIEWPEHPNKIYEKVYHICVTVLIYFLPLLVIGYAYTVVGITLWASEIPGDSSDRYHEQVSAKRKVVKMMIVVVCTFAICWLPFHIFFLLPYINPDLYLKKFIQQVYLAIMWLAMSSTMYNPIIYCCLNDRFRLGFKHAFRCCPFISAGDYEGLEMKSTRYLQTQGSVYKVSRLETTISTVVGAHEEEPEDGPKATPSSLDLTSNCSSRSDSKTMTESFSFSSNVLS

| SMILES | half life in the blood | Ki [1] [nM] | selectivity toward NK(2) receptors [2] | selectivity toward NK(3) receptors [3] |
| --- | --- | --- | --- | --- |
| Nc1ncnc2c1ncn2[C@@H]1O[C@H](CO)[C@@H](O)[C@H]1O [adenosine] | about 10 seconds | – | – | – |
| Cc1cccc(C)c1NC(=O)C[C@H]1CCN(C(=O)c2cc(C(F)(F)F)cc(C(F)(F)F)c2)[C@@H](Cc2ccccc2)C1.O=C(O)C[C@H](O)C(=O)O (relative stereo) [R116301, (2R-trans)-4-[1-[3,5-bis(trifluoromethyl)benzoyl]-2-(phenylmethyl)-4-piperidinyl]-N-(2,6-dimethylphenyl)-1-acetamide (S)-Hydroxybutanedioate] | – | 0.45 | over 200 fold | over 200 fold |
